Source: US10123960B2, “Methods for treating of skin conditions with retinoid double conjugate compounds” (US COSMECEUTECHS LLC, priority 2013, dated 2018)
Entries after “also recorded” stand apart in the source; their conditions may differ.

Tested on: upper outer arm or back of each subject
Assay: Maximization assay (human patch test: induction, rest and challenge phases)
Format: in vivo
Set-up: key to Maximization Testing Results: 72-Hour Grading / Maximization Testing Results: 48-Hour Grading: 0=not sensitized; 1=mild sensitization (viz. erythema and a little edema); 2=moderate sensitization (erythema with infiltration, raised, spreading beyond the borders of the patch, with or without vesiculation); 3=strong sensitization (large vesicula-bullous reaction)
Details: for Maximization Testing Results: 48-Hour Grading: 48 hours after challenge patch; for Maximization Testing Results: 72-Hour Grading: 72 hours after challenge patch
Procedure: A group of 26 subjects were tested to compare the activity of lactic acid retinoate (single conjugate) with ethyl lactate retinoate (double conjugate). As a general protocol, a patch (Webril cotton with 0.05 ml of a 5.0% aqueous solution) was applied to the upper outer arm or back of each subject. The entire test was composed of (1) an induction phase (2) a rest phase and (3) a challenge phase.
The scoring scale was as follows: • 0=not sensitized; • 1=mild sensitization (viz. erythema and a little edema); • 2=moderate sensitization (erythema with infiltration, raised, spreading beyond the borders of the patch, with or without vesiculation); and • 3=strong sensitization (large vesicula-bullous reaction).

[1] = Subject Number 26 (one volunteer)

Compound: CCOC(=O)[C@@H](C)OC(=O)/C=C(C)/C=C/C=C(C)/C=C/C1=C(C)CCCC1(C)C [ethyl lactate retinoate]
- share of the sample population with any skin irritation or allergic reactions (26 subjects): 0%
- instances of contact allergy (48 or 72 hours after application of the challenge patches): No instances of contact allergy were recorded
- Maximization Testing Results: 48-Hour Grading (Subject Number 01-26): Subject Number: 01-26, 48-Hour Grading: 0
- Maximization Testing Results: 72-Hour Grading (Subject Number 01-26): Subject Number: 01-26, 72-Hour Grading: 0

Compound: CC1=C(/C=C/C(C)=C/C=C/C(C)=C/C(=O)OC(C)C(=O)O)C(C)(C)CCC1 (centres unmarked) [lactyl retinoate, 2-(((2E,4E,6E,8E)-3,7-dimethyl-9-(2,6,6-trimethylcyclohex-1-en-1-yl)nona-2,4,6,8-tetraenoyl)oxy)propanoic acid]
- share of the sample population with a delayed skin irritation reaction presumptive of contact allergy (25 panelists completed): 4%
- Maximization Testing Results: 48-Hour Grading (Subject Number 01-24): Subject Number: 01-24, 48-Hour Grading: 0
- Maximization Testing Results: 72-Hour Grading (Subject Number 01-24): Subject Number: 01-24, 72-Hour Grading: 0
- Maximization Testing Results: 48-Hour Grading [1]: Subject Number: 26, 48-Hour Grading: 1
- Maximization Testing Results: 72-Hour Grading [1]: persisted at 72 hours (score 2); also recorded: Subject Number: 26, 72-Hour Grading: 2
- adverse or unexpected reactions in the panelists (induction phase): No adverse or unexpected reactions were
- skin irritation at the induction patch (leading to method deviation) (induction phase): many subjects had skin irritation sufficient enough to change protocol application
